The subject of experiment [1] is A431 cells (human epidermoid carcinoma). In words: In vitro tumor cell proliferation assay (Cell Titer-Glo luminescent cell viability), A431. In kind it is cell-based. As to conditions: A-431, 72 h, 72 hours of drug exposure, ATP luminescence readout, read-out: IC50, anti-proliferative activity (inhibition of cell proliferation). The method in brief: (§1)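 Seeding density 2.5×10^3 cells/well; 72 h drug exposure at 37° C; endpoint CellTiter-Glo luminescence, reported as IC50.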
On the technique in general: Cellular ATP, detected with luciferase, serves as a proxy for viable cell number.

The test system of experiment [2] is BT474 (human breast carcinoma). In words: In vitro tumor cell proliferation assay (Cell Titer-Glo luminescent cell viability), BT474. As to conditions: BT-474, 72 h, BT474 cells, 72 hours of drug exposure, ATP luminescence readout, read-out: IC50, anti-proliferative activity (inhibition of cell proliferation). In kind it is cell-based. In outline: as §1

Where a name gives a salt, the structure may show the parent alone.

Turning to `CNC[C@@H](O)Cn1ncc2c1CCc1c-2sc2ncnc(Nc3ccc(OCc4cccc(F)c4)c(Cl)c3)c12` [Example 166, (2R)-1-[6-({3-chloro-4-[(3-fluorobenzyl)oxy]phenyl}amino)-4,5-dihydro-3H-pyrimido[5′,4′:4,5]thieno[2,3-e]indazol-3-yl]-3-(methylamino)propan-2-ol trifluoroacetate (salt)], the IC50 in experiment [1] is at most 50 µM; in experiment [2], at most 1 µM.
In the same order, the values of `CN1CCN(C[C@@H](O)Cn2ncc3c2CCc2c-3sc3ncnc(Nc4ccc(OCc5cccc(F)c5)c(Cl)c4)c23)CC1` [Example 167, (2R)-1-[6-({3-chloro-4-[(3-fluorobenzyl)oxy]phenyl}amino)-4,5-dihydro-3H-pyrimido[5′,4′:4,5]thieno[2,3-e]indazol-3-yl]-3-(4-methylpiperazin-1-yl)propan-2-ol trifluoroacetate (salt)] are at most 50 µM and at most 1 µM.
In the same order, the values of `CCN(CC)C[C@@H](O)Cn1ncc2c1CCc1c-2sc2ncnc(Nc3ccc(OCc4cccc(F)c4)c(Cl)c3)c12` [Example 168, (2R)-1-[6-({3-chloro-4-[(3-fluorobenzyl)oxy]phenyl}amino)-4,5-dihydro-3H-pyrimido[5′,4′:4,5]thieno[2,3-e]indazol-3-yl]-3-(diethylamino)propan-2-ol trifluoroacetate (salt)] are at most 50 µM and at most 1 µM.
In the case of `CCNC[C@@H](O)Cn1ncc2c1CCc1c-2sc2ncnc(Nc3ccc(OCc4cccc(F)c4)c(Cl)c3)c12` [Example 169, (2R)-1-[6-({3-chloro-4-[(3-fluorobenzyl)oxy]phenyl}amino)-4,5-dihydro-3H-pyrimido[5′,4′:4,5]thieno[2,3-e]indazol-3-yl]-3-(ethylamino)propan-2-ol trifluoroacetate (salt)], the IC50 in experiment [1] was at most 50 µM; in experiment [2] it was at most 1 µM.
In the same order, the values of `O[C@H](Cn1ccnc1)Cn1ncc2c1CCc1c-2sc2ncnc(Nc3ccc(OCc4cccc(F)c4)c(Cl)c3)c12` [Example 170, (2R)-1-[6-({3-chloro-4-[(3-fluorobenzyl)oxy]phenyl}amino)-4,5-dihydro-3H-pyrimido[5′,4′:4,5]thieno[2,3-e]indazol-3-yl]-3-(1H-imidazol-1-yl)propan-2-ol trifluoroacetate (salt)] are at most 50 µM and at most 1 µM.
In the same order, the values of `CN(C)C[C@@H](O)Cn1ncc2c1CCc1c-2sc2ncnc(Nc3ccc(OCc4cccc(F)c4)c(Cl)c3)c12` [Example 171, (2R)-1-[6-({3-chloro-4-[(3-fluorobenzyl)oxy]phenyl}amino)-4,5-dihydro-3H-pyrimido[5′,4′:4,5]thieno[2,3-e]indazol-3-yl]-3-(dimethylamino)propan-2-ol trifluoroacetate (salt)] are at most 50 µM and at most 1 µM.
In the same order, the values of `OCCN(CCO)C[C@@H](O)Cn1ncc2c1CCc1c-2sc2ncnc(Nc3ccc(OCc4cccc(F)c4)c(Cl)c3)c12` [Example 172, (2R)-1-[bis(2-hydroxyethyl)amino]-3-[6-({3-chloro-4-[(3-fluorobenzyl)oxy]phenyl}amino)-4,5-dihydro-3H-pyrimido[5′,4′:4,5]thieno[2,3-e]indazol-3-yl]propan-2-ol trifluoroacetate (salt)] are at most 50 µM and at most 1 µM.
Take `COCCNC[C@@H](O)Cn1ncc2c1CCc1c-2sc2ncnc(Nc3ccc(OCc4cccc(F)c4)c(Cl)c3)c12` [Example 173, (2R)-1-[6-({3-chloro-4-[(3-fluorobenzyl)oxy]phenyl}amino)-4,5-dihydro-3H-pyrimido[5′,4′:4,5]thieno[2,3-e]indazol-3-yl]-3-[(2-methoxyethyl)amino]propan-2-ol trifluoroacetate (salt)]: the IC50 is at most 5 µM in experiment [1] and at most 1 µM in experiment [2].
On to `CCOC(=O)Cn1cc2c(n1)CCc1c-2sc2ncnc(Nc3ccc(OCc4cccc(F)c4)c(Cl)c3)c12` [Example 174], for which the IC50 was at most 50 µM in experiment [1] and at most 1 µM in experiment [2].
Taken in the same sequence, the figures for `O=C(O)Cn1cc2c(n1)CCc1c-2sc2ncnc(Nc3ccc(OCc4cccc(F)c4)c(Cl)c3)c12` [Example 175, [6-({3-chloro-4-[(3-fluorobenzyl)oxy]phenyl}amino)-4,5-dihydro-2H-pyrimido[5′,4′:4,5]thieno[2,3-e]indazol-2-yl]acetic acid] were at most 50 µM and at most 5 µM.
Regarding `Fc1cccc(COc2ccc(Nc3ncnc4sc5c(c34)CCc3nn(CCN4CCNCC4)cc3-5)cc2Cl)c1` [Example 176, N-{3-chloro-4-[(3-fluorobenzyl)oxy]phenyl}-2-(2-piperazin-1-ylethyl)-4,5-dihydro-2H-pyrimido[5′,4′:4,5]thieno[2,3-e]indazol-6-amine], the IC50 was at most 5 µM in experiment [1] and at most 1 µM in experiment [2].
In the same order, the values of `CN(C)[C@H]1CCN(C(=O)Cn2cc3c(n2)CCc2c-3sc3ncnc(Nc4ccc(OCc5cccc(F)c5)c(Cl)c4)c23)C1` [Example 177, N-{3-chloro-4-[(3-fluorobenzyl)oxy]phenyl}-2-{2-[(3S)-3-(dimethylamino)pyrrolidin-1-yl]-2-oxoethyl}-4,5-dihydro-2H-pyrimido[5′,4′:4,5]thieno[2,3-e]indazol-6-amine] are at most 5 µM and at most 1 µM.
Regarding `O=C(Cn1cc2c(n1)CCc1c-2sc2ncnc(Nc3ccc(OCc4cccc(F)c4)c(Cl)c3)c12)NCCO` [Example 178, 2-[6-({3-chloro-4-[(3-fluorobenzyl)oxy]phenyl}amino)-4,5-dihydro-2H-pyrimido[5′,4′:4,5]thieno[2,3-e]indazol-2-yl]-N-(2-hydroxyethyl)acetamide], the IC50 in experiment [1] is at most 50 µM; in experiment [2], at most 1 µM.
Taken in the same sequence, the figures for `O=C(Cn1cc2c(n1)CCc1c-2sc2ncnc(Nc3ccc(OCc4cccc(F)c4)c(Cl)c3)c12)N1CCOCC1` [Example 179, N-{3-chloro-4-[(3-fluorobenzyl)oxy]phenyl}-2-(2-morpholin-4-yl-2-oxoethyl)-4,5-dihydro-2H-pyrimido[5′,4′:4,5]thieno[2,3-e]indazol-6-amine] were at most 5 µM and at most 1 µM.
For the compound `CS(=O)(=O)CCNC(=O)Cn1cc2c(n1)CCc1c-2sc2ncnc(Nc3ccc(OCc4cccc(F)c4)c(Cl)c3)c12` [Example 180, 2-[6-({3-chloro-4-[(3-fluorobenzyl)oxy]phenyl}amino)-4,5-dihydro-2H-pyrimido[5′,4′:4,5]thieno[2,3-e]indazol-2-yl]-N-[2-(methylsulfonyl)ethyl]acetamide], the IC50 is at most 50 µM in experiment [1] and at most 1 µM in experiment [2].
Taken in the same sequence, the figures for `CN(C)[C@@H]1CCN(C(=O)Cn2cc3c(n2)CCc2c-3sc3ncnc(Nc4ccc(OCc5cccc(F)c5)c(Cl)c4)c23)C1` [Example 181, N-{3-chloro-4-[(3-fluorobenzyl)oxy]phenyl}-2-{2-[3-(dimethylamino)pyrrolidin-1-yl]-2-oxoethyl}-4,5-dihydro-2H-pyrimido[5′,4′:4,5]thieno[2,3-e]indazol-6-amine] were at most 5 µM and at most 1 µM.
In the case of `CN1CCN(C(=O)Cn2cc3c(n2)CCc2c-3sc3ncnc(Nc4ccc5c(cnn5Cc5cccc(F)c5)c4)c23)CC1` [Example 182, N-[1-(3-fluorobenzyl)-1H-indazol-5-yl]-2-[2-(4-methylpiperazin-1-yl)-2-oxoethyl]-4,5-dihydro-2H-pyrimido[5′,4′:4,5]thieno[2,3-e]indazol-6-amine], the IC50 is at most 5 µM in experiment [1] and at most 1 µM in experiment [2].
Taken in the same sequence, the figures for `CN1CCN(C(=O)Cn2cc3c(n2)CCc2c-3sc3ncnc(Nc4ccc(OCc5cccc(F)c5)c(Cl)c4)c23)CC1` [Example 183, N-{3-chloro-4-[(3-fluorobenzyl)oxy]phenyl}-2-[2-(4-methylpiperazin-1-yl)-2-oxoethyl]-4,5-dihydro-2H-pyrimido[5′,4′:4,5]thieno[2,3-e]indazol-6-amine] were at most 5 µM and at most 1 µM.
As to `CN(C)C(=O)Cn1cc2c(n1)CCc1c-2sc2ncnc(Nc3ccc(OCc4cccc(F)c4)c(Cl)c3)c12` [Example 184, 2-[6-({3-chloro-4-[(3-fluorobenzyl)oxy]phenyl}amino)-4,5-dihydro-2H-pyrimido[5′,4′:4,5]thieno[2,3-e]indazol-2-yl]-N,N-dimethylacetamide], the figures for the IC50 in experiment [1] and in experiment [2] were at most 5 µM and at most 1 µM, respectively.
In the same order, the values of `CCN1CCN(C(=O)Cn2cc3c(n2)CCc2c-3sc3ncnc(Nc4ccc(OCc5cccc(F)c5)c(Cl)c4)c23)CC1` [Example 185, N-{3-chloro-4-[(3-fluorobenzyl)oxy]phenyl}-2-[2-(4-ethylpiperazin-1-yl)-2-oxoethyl]-4,5-dihydro-2H-pyrimido[5′,4′:4,5]thieno[2,3-e]indazol-6-amine] are at most 5 µM and at most 1 µM.
Turning to `COCCN1CCN(C(=O)Cn2cc3c(n2)CCc2c-3sc3ncnc(Nc4ccc(OCc5cccc(F)c5)c(Cl)c4)c23)CC1` [Example 186, N-{3-chloro-4-[(3-fluorobenzyl)oxy]phenyl}-2-{2-[4-(2-methoxyethyl)piperazin-1-yl]-2-oxoethyl}-4,5-dihydro-2H-pyrimido[5′,4′:4,5]thieno[2,3-e]indazol-6-amine], the results for the IC50 in experiment [1] and in experiment [2] were at most 5 µM and at most 1 µM, respectively.
In the same order, the values of `O=C(Cn1cc2c(n1)CCc1c-2sc2ncnc(Nc3ccc(OCc4cccc(F)c4)c(Cl)c3)c12)N(CCO)CCO` [Example 187, 2-[6-({3-chloro-4-[(3-fluorobenzyl)oxy]phenyl}amino)-4,5-dihydro-2H-pyrimido[5′,4′:4,5]thieno[2,3-e]indazol-2-yl]-N,N-bis(2-hydroxyethyl)acetamide] are at most 50 µM and at most 1 µM.
Regarding `CNC(=O)Cn1cc2c(n1)CCc1c-2sc2ncnc(Nc3ccc(OCc4cccc(F)c4)c(Cl)c3)c12` [Example 188, 2-[6-({3-chloro-4-[(3-fluorobenzyl)oxy]phenyl}amino)-4,5-dihydro-2H-pyrimido[5′,4′:4,5]thieno[2,3-e]indazol-2-yl]-N-methylacetamide], the IC50 in experiment [1] is at most 50 µM; in experiment [2], at most 1 µM.

Source of the values: patent US8207172B2 (Bayer Intellectual Property GmbH, priority 2004, dated 2012).
